Patent US20240415791A1, “Therapeutic methods and compositions for treating cancer using devimistat and a fatty acid oxidation inhibitor, a tyrosine kinase inhibitor, a glutaminase inhibitor, and/or a glycolysis inhibitor” (Cornerstone Pharmaceuticals, Inc., priority 2021, published 2024)
Read-outs that look alike come from different tables or passages of the source.

Tests used:
[1] = tested on: AsPC1 cells; experiment: Devimistat-induced cell death (ATP after recovery) in AsPC1 cells; type: cell-based, human; conditions: for sensitization to devimistat-induced cell death, agent combined with devimistat: AsPC1, nutrient-free CBS2, treatment followed by recovery in serum-free RPMI; for Devimistat synergy: devimistat-induced cell death, no exogenous carbon, 15 hours treatment then recovery
Protocol: Cells were plated at 80% confluency in complete RPMI in black, clear bottom 96-well plates or 35-mm dishes for ATP, protein and glycogen analysis, or glass coverslips for fluorescence visualization. […] Prior to drug treatment, cells were incubated in a nutrient-free carbonate buffered salt solution (CBS2) for 3 hours. Drug treatments were then carried out in CBS2 with addition of nutrient sources and/or chemical agents as described in the Examples and Figures.
(§1) LOGIC: High throughput, plate reader assays for cell death essentially always ultimately depend on metabolic activity of cells to identify viability, directly or indirectly. Thus, strong inhibition of metabolic activity by anti-metabolism agents like those described herein can confound cell death analysis by such assays. […] The inventors thus used a recovery-based assay wherein cells are treated with anti-metabolic agents under conditions where mitochondrial metabolism is (or becomes) limiting on viability. After experimental treatment, drug and media are removed and cells are allowed to recover in serum-free RPMI. RPMI provides high levels of glucose in support of glycolytic ATP generation (independently of mitochondrial function), allowing viable cells to recover ATP levels that are ultimately measured in the plate assay to score cell viability.
Survival is assessed by conventional luminescence measurement of ATP levels after this recovery.
TECHNICAL DETAILS: Immediately after drug treatments, acute ATP levels of cells in black, clear bottom 96-well plates were measured using the CellTiter-Glo® Luminescent Cell Viability Assay (catalog #G775B) following Promega (Madison, WI) protocols. […] After this recovery period ATP levels were measured using the CellTiter-Glo® Luminescent Cell Viability Assay as described above.
Survival is assessed by conventional luminescence measurement of ATP levels after this recovery. See the Methods section above for a detailed description of this assay and its validation.

[2] = tested on: AsPC1 cells; experiment: Acute ATP synthesis rescue by exogenous carbon sources in AsPC1 cells treated with devimistat and GPi; type: cell-based, human; conditions: for inhibition of oleic acid (OA)-driven acute ATP synthesis / OA rescue / OA rescue blockade: 50 μM oleic acid; for OA rescue blockade: acute ATP synthesis, 50 μM GPi
[3] = tested on: PANC1 cells; experiment: Devimistat-induced cell death (ATP after recovery) in PANC1 cells; type: cell-based, human; conditions: PANC1, nutrient-free CBS2, treatment followed by recovery in serum-free RPMI
Protocol: Cells were plated at 80% confluency in complete RPMI in black, clear bottom 96-well plates or 35-mm dishes for ATP, protein and glycogen analysis, or glass coverslips for fluorescence visualization. To create low nutritional conditions, cells were seeded in complete media, after 24 hours cells were transferred to serum free RPMI for 18-24 hours. Prior to drug treatment, cells were incubated in a nutrient-free carbonate buffered salt solution (CBS2) for 3 hours. Drug treatments were then carried out in CBS2 with addition of nutrient sources and/or chemical agents as described in the Examples and Figures.
as §1, with “cell viability. Under these conditions, cells that are committed to execution of cell death by the experimental treatment score as dead and cells that have not committed to cell death recover ATP levels and score as viable.” for “cell viability.”
Specifically, after exposure to the treatments indicated, cells are allowed to recover ([…]) in RPMI without serum. Survival is assessed by conventional luminescence measurement of ATP levels after this recovery.
TECHNICAL DETAILS: Immediately after drug treatments, acute ATP levels of cells in black, clear bottom 96-well plates were measured using the CellTiter-Glo® Luminescent Cell Viability Assay (catalog #G775B) following Promega (Madison, WI) protocols. To assess cell viability, after drug treatments, drug/agent-containing medium was replaced with serum-free RPMI and cells were incubated for an additional 17-24 hours to allow recovery of viable cells, without additional cell division. After this recovery period ATP levels were measured using the CellTiter-Glo® Luminescent Cell Viability Assay as described above.
A. Exogenous glucose protects from devimistat-induced cell death. Four different cell lines were exposed for 15 hours (PANC1, AsPC1, H460) or 8 hours (PC3) to the indicated range of devimistat doses in the absence of exogenous nutrients (in carbonate buffered balanced salts solution, CBS2) after 3 hours of preincubation in CBS2 (for cell adaptation and to equilibrate soluble nutrient pools). Cells were exposed to the treatments indicated, followed by recovery (24 hours) in RPMI without serum (providing nutrient support for viable cell recovery, without serum factors for cell division). Survival is assessed by conventional luminescence measurement of ATP levels after this recovery. […] The relatively large quantitative differences in devimistat sensitivity between cell lines under exogenous nutrient deprivation are characteristic of each line (see examples below), with small experiment-to-experiment variation. […]

[4] = tested on: PANC1 cells; experiment: Glycogen content in PANC1 cells; type: cell-based, human; conditions: PANC1, CBS2, 3 hours
Protocol: (§2) Glycogen was quantified using the Glycogen Assay Kit II (colorimetric) from AbCam (ab169558) according to manufacturer's instructions. Briefly, approximately 2×10^6 cells were washed with ice-cold PBS and collected via scraping in 300 μL ice-cold ddH2O. Cells were immediately sonicated on ice for 5× […] pulses with a probe sonicator (Misonix Inc, model XL2000), then heated to 80° C. for 10 min. Samples were stored O/N at −20° C., then thawed, centrifuged at 12,000×g for 10 min and the supernatants collected for glycogen hydrolysis and quantification according to manufacturer's instructions.
C. Comparison of endogenous glycogen stores and their devimistat-induced depletion in PANC1 and AsPC1 cells. Cells were treated in CBS2 for 3 hours with 30 μM devimistat or mock treated (FIG. 2C, left), or treated for 3 hours with the indicated devimistat doses (FIG. 2C, right). Glycogen quantitation is described in Methods, above. ** indicates p<0.01. **** indicates p<0.0001.
(§3) D. Effects of anti-metabolism agents on glycogen consumption in PANC1 and AsPC1 cells. […] Glycogen content was measured in cell lysates (see Methods, above) and the results are presented in the left and middle graphs in FIG. 3D (note the different vertical scales for PANC1 and AsPC1 plots).

[5] = tested on: AsPC1 cells; experiment: Glycogen content in AsPC1 cells; type: cell-based, human; conditions: AsPC1, CBS2, 3 hours
Protocol: as §2
C. […] Cells were treated in CBS2 for 3 hours with 30 μM devimistat or mock treated (FIG. 2C, left), or treated for 3 hours with the indicated devimistat doses (FIG. 2C, right).
as §3

[6] = tested on: AsPC1 xenograft; experiment: AsPC1 xenograft tumor growth, crizotinib and devimistat; type: in vivo, mice; conditions: crizotinib oral gavage, devimistat IP, MWF
Protocol: Female, 6-week-old, CD1-nu/nu mice were inoculated with 2.5 million PANC-1 cell in 100 μL of HBSS or 5 million AsPC-1 cells in HBSS. Treatment commenced when tumors reached 100 mm^3 and lasted for the times indicated in the Examples and Figures. Mice were treated three times per week (MWF) with vehicle or drugs as indicated in the Examples and Figures. Tumors were measured once per week. […] Use of Matrigel for tumor inoculation was avoided in TGI experiments with this class of agents.
D. Assessment of CRZ and/or devimistat effects on AsPC1 xenograft tumor growth in vivo. Tumors were inoculated subcutaneously on the flank and drug combinations indicated in FIG. 8C were administered intraperitoneally (devimistat) or by oral gavage (CRZ) three days per week (MWF). Tumor size was estimated by caliper assessment of tumor radius and calculation of volume (see Methods).

[7] = tested on: AsPC1 cells; experiment: CO2 release from 14C-oleic acid in AsPC1 cells; type: cell-based, human; conditions: AsPC1, CBS2, 50 μM GPi, 40 μM oleic acid
[8] = AsPC1, 50 μM GPi, 60 μM devimistat

Row | SMILES | sensitization to devimistat-induced cell death, agent combined with devimistat [1] | glycogen consumption [5] | inhibition of oleic acid (OA)-driven acute ATP synthesis / OA rescue [2, 8] | OA rescue blockade ([2]; 60 μM devimistat) | other results
1 | O=C(Cc1cccc(OC(F)(F)F)c1)Nc1ccc(CCCCc2nnc(NC(=O)Cc3ccccn3)s2)nn1 [CB-839, 2-(pyridin-2-yl)-N-(5-(4-(6-(2-(3-(trifluoromethoxy)phenyl)acetamido)pyridazin-3-yl)butyl)-1,3,4-thiadiazol-2-yl)acetamide] | modest effects on devimistat sensitivity | – | – | – | blockade of glutamine rescue from devimistat inhibition of ATP synthesis ([2]; AsPC1, 50 μM GPi, 60 μM devimistat, 2 mM glutamine, CB-839 0.2 μM, hexachlorophene 3 μM, 4.5 hours): blockade; sensitization to devimistat-induced cell death, agent combined with devimistat [3]: modest effects on devimistat sensitivity
2 | CN(C)C(=O)[C@H](O)[C@H](Cc1ccccc1)NC(=O)c1cc2cc(Cl)ccc2[nH]1 [CP-91149, 5-chloro-N-[(1S,2R)-3-(dimethylamino)-2-hydroxy-3-oxo-1-(phenylmethyl)propyl]-1H-indole-2-carboxamide] | Synergy observed | reduces glycogen consumption | – | – | glycogen consumption [4]: reduces glycogen consumption; sensitization to devimistat-induced cell death, agent combined with devimistat [3]: interacts more weakly with devimistat
3 | C[C@@H](Oc1cc(-c2cnn(C3CCNCC3)c2)cnc1N)c1c(Cl)ccc(F)c1Cl [Crizotinib, (R)-3-[1-(2,6-Dichloro-3-fluorophenyl)ethoxy]-5-[1-(piperidin-4-yl)-1H-pyrazol-4-yl]pyridin-2-amine] | robustly sensitize | – | robust inhibition | Yes | sensitization to devimistat tumor cell killing in vivo [6]: sensitizes to devimistat tumor cell killing in vitro and in vivo
4 | CCOC(=O)[C@@]1(CCCCCCOc2ccc(Cl)cc2)CO1 [ETX] | enhances devimistat effects | – | strongly inhibited | – | oleic acid beta-oxidation (CO2 release from oleate) [7]: block oleic acid beta-oxidation
5 | COc1cc2c(Oc3ccc(NC(=O)C4(C(=O)Nc5ccc(F)cc5)CC4)cc3F)ccnc2cc1OCCCN1CCOCC1 [Foretinib, N1′-[3-fluoro-4-[[6-methoxy-7-(3-morpholinopropoxy)-4-quinolyl]oxy]phenyl]-N1-(4-fluorophenyl)cyclopropane-1,1-dicarboxamide] | robustly sensitize | – | robust inhibition | Yes | Devimistat synergy [1]: Yes
6 | CNC(=O)c1c(F)cccc1Nc1nc(Nc2cc3c(cc2OC)CCN3C(=O)CN(C)C)nc2[nH]ccc12 [GSK1838705A] | more limited sensitization | – | little or no inhibition | No | Devimistat synergy [1]: No
7 | CCN(CCO)CCCC(C)Nc1ccnc2cc(Cl)ccc12 (stereo not shown) [HCQ] | Synergy observed | significantly accelerates glycogen consumption | – | – | glycogen consumption [4]: significantly accelerates glycogen consumption; sensitization to devimistat-induced cell death, agent combined with devimistat [3]: Synergy observed
8 | CSc1cccc(Nc2ncc3cc(-c4c(Cl)cccc4Cl)c(=O)n(C)c3n2)c1 [PD-173955] | more limited sensitization | – | little or no inhibition | No | Devimistat synergy [1]: No
9 | Oc1c(Cl)cc(Cl)c(Cl)c1Cc1c(O)c(Cl)cc(Cl)c1Cl [hexachlorophene] | – | – | – | – | blockade of glutamine rescue from devimistat inhibition of ATP synthesis [2]: blockade
10 | CC[C@H]1/C=C/C=C/C[C@@H](C)[C@H](O)[C@@](C)(O)C(=O)[C@@H](C)[C@H](O)[C@@H](C)C(=O)[C@@H](C)[C@H](O)[C@@H](C)/C=C/C(=O)O[C@@H]2[C@H](C)[C@H](CC1)O[C@]1(CC[C@H](C)[C@H](C[C@@H](C)O)O1)[C@H]2C [oligomycin] | – | induce accelerated glycogen depletion | – | – | –
11 | [H]/N=C(/N)N/C(=N/[H])NCCc1ccccc1 [phenformin] | sensitizes AsPC1 to devimistat | – | – | – | –
12 | C=C(C)[C@H]1Cc2c(ccc3c2O[C@@H]2COc4cc(OC)c(OC)cc4[C@@H]2C3=O)O1 [rotenone] | – | induce accelerated glycogen depletion | – | – | –
